# Measured values reported in ChEMBL document CHEMBL1130628, “Synthesis and antiproliferative activity of a cyclic analog of dolastatin 10” (Bioorg Med Chem Lett, 1998).
# How the values were obtained:
# Tubulin alpha chain [1] = target: T1, Tubulin alpha chain (Sus scrofa, UniProt P02550); assay: Compound was tested in vitro for inhibition of tubulin polymerization; assay type: functional
# L1210 [2] = assay: Compound was evaluated for antiproliferative activity against murine leukemia (L1210) cell lines; assay type: functional, cell-based; conditions: Mus musculus
# HT-29 = assay: Compound was evaluated for antiproliferative activity against human colon adenocarcinoma (HT-29) cell lines.; assay type: functional, cell-based
# Tubulin alpha chain [3] = target: T1, Tubulin alpha chain; assay: Compound was tested in vitro for inhibition of tubulin polymerization.; assay type: functional
# L1210 [4] = assay: Compound was evaluated for antiproliferative activity against murine leukemia (L1210) cell lines.; assay type: functional, cell-based; conditions: Mus musculus
# T1 sequence (P02550 whole entry, looked up): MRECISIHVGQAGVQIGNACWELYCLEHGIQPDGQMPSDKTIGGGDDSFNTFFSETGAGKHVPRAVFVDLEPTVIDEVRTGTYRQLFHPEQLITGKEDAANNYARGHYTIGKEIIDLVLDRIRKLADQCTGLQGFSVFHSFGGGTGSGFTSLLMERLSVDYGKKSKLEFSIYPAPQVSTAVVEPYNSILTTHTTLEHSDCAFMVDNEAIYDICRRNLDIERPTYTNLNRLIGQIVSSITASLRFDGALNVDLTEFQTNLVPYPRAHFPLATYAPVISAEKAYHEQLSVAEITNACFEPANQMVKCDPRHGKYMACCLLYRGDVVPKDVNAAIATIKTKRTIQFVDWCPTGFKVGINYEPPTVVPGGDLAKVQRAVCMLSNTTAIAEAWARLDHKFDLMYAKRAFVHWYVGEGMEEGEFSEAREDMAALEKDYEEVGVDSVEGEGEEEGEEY
IC50 (Tubulin alpha chain [1]) [µM],IC50 (L1210 [2]) [nM],Compound,IC50 (HT-29) [nM],IC50 (Tubulin alpha chain [3]) [nM],IC50 (L1210 [4]) [nM]
39,111,CC[C@H](C)[C@H]1[C@H](OC)CC(=O)N2CCC[C@H]2[C@H](OC)[C@H](C)C(=O)N[C@@H](Cc2ccccc2)c2nc(cs2)C(=O)O[C@H](C)[C@H](N(C)C)C(=O)N[C@@H](C(C)C)C(=O)N1C,58.5,,
,,"CC[C@H](C)[C@@H]([C@@H](CC(=O)N1CCC[C@H]1[C@H](OC)C(C)C(=O)NC(Cc1ccccc1)c1nccs1)OC)N(C)C(=O)[C@@H](NC(=O)[C@H](C(C)C)N(C)C)C(C)C (single isomer, unassigned) [DOLASTATIN-10]",0.06,2200,0.03
